Laboratory results as given in US5750516A, “Phosphoric diester” (Senju Pharmaceutical Co., Ltd., priority 1995, dated 1998).

Tests used:
[1] = test system: lipid peroxidation in rat brain homogenate; assay: Autooxidation (lipid peroxidation) of the rat brain homogenate, MDA by TBA method; format: biochemical, Rats of Wistar strain; settings: for Inhibition (%) of lipid peroxidation in rat brain homogenate: 37° C., 30 minutes, pH 7.4
Experimental: Rats of Wistar strain (male, 11 weeks old) were used. The animal was decapitated and the brain was enucleated and homogenized in 4 ml/gram of 50 mM phosphate-buffered saline (pH 7.4). The homogenate was centrifuged (1000 g, 10 min.) and the supernatant was harvested. The test solution was set to 10^-7 -10^-4 M (dissolved at a final ethanol concentration of 1%). To 100 μl of the test solution was added 200 μl of the brain homogenate as well as 700 μl of phosphate-buffered saline and the mixture was incubated at 37° C. for 30 minutes for lipid peroxidation. The reaction was stopped with 200 μl of 35% perchloric acid and centrifuged (1300 g, 10 min.) and the MDA (malondialdehyde) value of the supernatant was determined by the TBA (thiobarbituric acid) method.

[2] = DPPH (1,1-Diphenyl-2-picrylhydrazyl) radical scavenging action; format: biochemical; settings: for Inhibition (%) (scavenging effect on DPPH radical): 20 minutes, 517 nm
Experimental: To 2.7 ml of 0.11 mM-DPPH/ethanol was added 300 μl of the test solution and the mixture was stirred and allowed to stand for 20 minutes. Then, the absorbance was measured at 517 nm. The radical scavenging effect (%) of each test solution was calculated by means of the following equation. [formula]

With `Cc1c(C)c2c(c(C)c1OP(=O)([O-])O[C@@H](CO)[C@H]1OC(=O)C(O)=C1O)CCC(C)(CCCC(C)CCCC(C)CCCC(C)C)O2.[K+]` (stereo partly drawn) [the present compound, L-ascorbic acid 5-[3,4-dihydro-2,5,7,8-tetramethyl-2-(4,8,12-trimethyltridecyl)-2H-1-benzopyran-6-yl hydrogen phosphate] potassium] the “Inhibition (%) of lipid peroxidation in rat brain homogenate” value (shortened to “Inhibition (%) of lipid peroxidation”) ([1]; 10^-4 M) was 98.5%, the “Inhibition (%) of lipid peroxidation” value ([1]; 10^-5 M) was 98.7% and the “Inhibition (%) of lipid peroxidation” value ([1]; 10^-6 M) was 93.3%. The “inhibition of autooxidation of the rat brain homogenate (in words)” value ([1]; 10^-7 -10^-4 M) was “inhibits autooxidation of the rat brain homogenate to a remarkable extent”, the “Inhibition (%) of lipid peroxidation” value ([1]; 10^-7 M) was 24.7% and the “Inhibition (%) (scavenging effect on DPPH radical)” value ([2]; 5 × 10^-5 M) was 71.7%. The “Inhibition (%) (scavenging effect on DPPH radical)” value ([2]; 10^-3 M) was 96.7%, the “Inhibition (%) (scavenging effect on DPPH radical)” value ([2]; 10^-4 M) was 97.3% and the “Inhibition (%) (scavenging effect on DPPH radical)” value ([2]; 10^-5 M) was 13.1%. For the same molecule, the “scavenging of DPPH radicals (in words)” value ([2]; 10^-5 to 10^-3 M) was “scavenges DPPH radicals to a remarkable extent”.
